Assay results published in patent US20040231558A1, “Water-color ink” (priority 2001, published 2004).

Legend:
Type in all cases: physicochemical
[1] = Evaluation of storage stability of ink (40° C. for 3 months, insoluble matter and clogging); conditions: recording liquid stored at 40° C. for 3 months; insoluble matter and clogging
Protocol: (§1) The prepared ink was filled in an ink cartridge for a piezo-type ink-jet printer EM-930C (manufactured by Seiko Epson). The printing was performed with this printer, and the light fastness was evaluated. Further, the storage stability of the ink was evaluated.
(C) Evaluation of Storage Stability of Ink:
After a recording liquid was stored at 40° C. for 3 months, it was observedwhether or not an insoluble matterwas precipitated, and whether or not clogging occurred after continuous recording with the foregoing printer for a long period of time.

[2] = Evaluation of light fastness-2 (OD value of printed portion after 400 hours xenon fadeometer); conditions: ink prepared as in Example 1 from the salt named in the row; OD value of printed portion after 400 hours xenon fadeometer
Protocol: as §1
(A)-2 Evaluation of Light Fastness-2
Printing density (OD value) was measured after irradiating a printed-portion with light for 400 hours using axenon fadeometer (manufactured by Suga Shikenki), and the light fastness was evaluated.

[3] = Evaluation of light fastness-1 (OD value of printed portion after 100 hours xenon fadeometer); conditions: ink prepared as in Example 1 from the salt named in the row; OD value of printed portion after 100 hours xenon fadeometer
Protocol: as §1
(A)-1 Evaluation of Light Fastness-1
Printing density (OD value) was measured after irradiating a printed portion with light for 100 hours using a xenon fadeometer (manufactured by Suga Shikenki) to evaluate the light fastness.

[4] = Evaluation of moisture resistance (image-recorded paper at 40° C. and humidity 85%, visual observation); conditions: image-recorded paper at 40° C. and humidity 85%, visually observed

(C) storage stability [1]	(A)-2 light fastness-2 [2]	(A)-1 light fastness-1 [3]	(B) moisture resistance [4]	Structure (SMILES)
◯	⊚⊚	⊚	⊚	N#Cc1c(-c2ccccc2)c(N=Nc2cc(C(=O)O)ccc2C(=O)O)c(O)n(CCNC(=O)c2cc(C(=O)O)c(C(=O)NCCn3c(O)c(N=Nc4cc(C(=O)O)ccc4C(=O)O)c(-c4ccccc4)c(C#N)c3=O)cc2C(=O)O)c1=O [Compound 285]
◯	⊚	⊚	⊚	N#Cc1c(-c2ccccc2)c(N=Nc2cc(C(=O)O)ccc2C(=O)O)c(O)n(CCCCCCNC(=O)c2cc(C(=O)O)c(C(=O)NCCCCCCn3c(O)c(N=Nc4cc(C(=O)O)ccc4C(=O)O)c(-c4ccccc4)c(C#N)c3=O)cc2C(=O)O)c1=O [Compound 287]
◯	⊚⊚	⊚	⊚	N#Cc1c(C(F)(F)F)c(N=Nc2cc(C(=O)O)ccc2C(=O)O)c(O)n(CCNC(=O)c2cc(C(=O)O)c(C(=O)NCCn3c(O)c(N=Nc4cc(C(=O)O)ccc4C(=O)O)c(C(F)(F)F)c(C#N)c3=O)cc2C(=O)O)c1=O [Compound 291]
◯	⊚⊚	⊚	⊚	Cc1c(N=Nc2cccc(C(=O)O)c2C(=O)O)c(O)n(CCNC(=O)c2cc(C(=O)O)c(C(=O)NCCn3c(O)c(N=Nc4cccc(C(=O)O)c4C(=O)O)c(C)c(C#N)c3=O)cc2C(=O)O)c(=O)c1C#N [Compound 293]
Δ	◯	⊚	⊚	Cc1c(N=Nc2cc(C(=O)O)ccc2C(=O)O)c(O)n(CCNc2nc(O)nc(NCCn3c(O)c(N=Nc4cc(C(=O)O)ccc4C(=O)O)c(C)c(C#N)c3=O)n2)c(=O)c1C#N [Compound 294]
◯	⊚	⊚	⊚	Cc1c(N=Nc2cc(C(=O)O)ccc2C(=O)O)c(O)n(CCNC(=O)c2cc(C(=O)NCCn3c(O)c(N=Nc4cc(C(=O)O)ccc4C(=O)O)c(C)c(C#N)c3=O)c(C(=O)O)cc2C(=O)O)c(=O)c1C#N [Compound 296]
◯	⊚	⊚	⊚	CCc1c(N=Nc2cc(C(=O)O)ccc2C(=O)O)c(O)n(CCNC(=O)c2cc(C(=O)NCCn3c(O)c(N=Nc4cc(C(=O)O)ccc4C(=O)O)c(CC)c(C#N)c3=O)c(C(=O)O)cc2C(=O)O)c(=O)c1C#N [Compound 297]
◯	◯	⊚	⊚	Cc1c(N=Nc2cc(C(=O)O)ccc2C(=O)O)c(O)n(CCCCCCNC(=O)c2cc(C(=O)NCCCCCCn3c(O)c(N=Nc4cc(C(=O)O)ccc4C(=O)O)c(C)c(C#N)c3=O)c(C(=O)O)cc2C(=O)O)c(=O)c1C#N [Compound 299]
Δ	⊚	⊚	⊚	Cc1c(N=Nc2cc(C(=O)O)ccc2C(=O)O)c(O)n(CCNC(=O)c2ccc(C(=O)NCCn3c(O)c(N=Nc4cc(C(=O)O)ccc4C(=O)O)c(C)c(C#N)c3=O)c(C(=O)NCCn3c(O)c(N=Nc4cc(C(=O)O)ccc4C(=O)O)c(C)c(C#N)c3=O)c2)c(=O)c1C#N [Compound 305]
Δ	⊚	⊚	⊚	CCc1c(N=Nc2cc(C(=O)O)ccc2C(=O)O)c(O)n(CCNC(=O)c2ccc(C(=O)NCCn3c(O)c(N=Nc4cc(C(=O)O)ccc4C(=O)O)c(CC)c(C#N)c3=O)c(C(=O)NCCn3c(O)c(N=Nc4cc(C(=O)O)ccc4C(=O)O)c(CC)c(C#N)c3=O)c2)c(=O)c1C#N [Compound 308]
